Laboratory results from patent publication US20240246977A1, “DEGRADATION OF BRUTON'S TYROSINE KINASE (BTK) BY CONJUGATION OF BTK INHIBITORS WITH E3 LIGASE LIGAND AND METHOD OF USE” (BeiGene Switzerland GmbH, priority 2021, published 2024).

What was measured:
[1] = biological target: BTK (Homo sapiens, UniProt Q06187); experiment: BTK cell degradation in TMD-8 cells, HTRF assay; format: cell-based; parameters: endogenous in cells; host or cells: TMD-8 cells; conditions: 6 h treatment, IC50 (DC50) of BTK degradation
BTK, sequence (Q06187 whole entry): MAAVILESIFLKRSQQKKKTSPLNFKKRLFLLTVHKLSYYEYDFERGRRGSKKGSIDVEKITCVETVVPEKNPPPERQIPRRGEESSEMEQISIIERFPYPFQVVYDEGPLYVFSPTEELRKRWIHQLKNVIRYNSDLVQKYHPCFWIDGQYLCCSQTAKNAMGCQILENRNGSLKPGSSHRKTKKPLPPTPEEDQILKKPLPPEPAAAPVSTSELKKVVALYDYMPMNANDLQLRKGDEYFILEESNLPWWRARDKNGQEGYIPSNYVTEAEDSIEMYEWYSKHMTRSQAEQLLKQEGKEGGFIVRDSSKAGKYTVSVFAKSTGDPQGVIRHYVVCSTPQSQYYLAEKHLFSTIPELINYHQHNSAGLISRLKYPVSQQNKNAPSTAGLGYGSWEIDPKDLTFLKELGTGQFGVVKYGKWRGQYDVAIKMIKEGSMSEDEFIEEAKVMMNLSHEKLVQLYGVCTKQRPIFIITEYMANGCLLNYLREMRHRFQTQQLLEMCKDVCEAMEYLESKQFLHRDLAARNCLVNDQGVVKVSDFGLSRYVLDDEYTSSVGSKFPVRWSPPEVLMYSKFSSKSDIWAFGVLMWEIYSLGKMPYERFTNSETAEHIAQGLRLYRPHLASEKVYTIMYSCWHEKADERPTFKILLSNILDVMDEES
How it was run: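 BTK levels read by HTRF in lysates of TMD-8 cells exposed to compounds for 6 h, eight concentrations at 6-fold steps in 0.2% DMSO. Percent degradation versus DMSO and low controls was fitted with a four-parameter equation to give DC50; Dmax is maximal degradation.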

[2] = test system: HEK-293 cells; experiment: HEK-293 cytotoxicity detection (CellTiter-Glo); format: cell-based; conditions: Homo sapiens, 72 h, 72 h incubation, CellTiter-Glo luminescence, read-out: HEK293
How it was run: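 HEK-293 cells exposed 72 h to 8 compounds doses (4-fold dilutions, top stock 5 mM at 500×) in 0.2% DMSO. Viability by CellTiter-Glo luminescence; inhibition normalised to DMSO high control and low control, IC50 from four-parameter curve fit.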

DC50 [1] [nM]	SMILES	IC50 [2] [nM]
4.38	COc1ccccc1C(=O)NCc1ccc(-c2nn3c(c2C(N)=O)Nc2ccc(N4CCN(CC5CCN(c6ccc(N7CCC(=O)NC7=O)cc6)CC5)CC4)cc2CC3)c(F)c1C [Example C46, 7-(4-((1-(4-(2,4-dioxotetrahydropyrimidin-1(2H)-yl)phenyl)piperidin-4-yl)methyl)piperazin-1-yl)-2-(2-fluoro-4-((2-methoxybenzamido)methyl)-3-methylphenyl)-9,10-dihydro-4H-benzo[d]pyrazolo[1,5-a][1,3]diazepine-3-carboxamide]	> 10000
4.64	COc1ccccc1C(=O)NCc1ccc(-c2nn3c(c2C(N)=O)Nc2ccc(N4CCN(CC5CCN(c6ccc(N7CCC(=O)NC7=O)cc6)CC5)CC4)cc2CC3)c(F)c1F [Example C47, 2-(2,3-difluoro-4-((2-methoxybenzamido)methyl)phenyl)-7-(4-((1-(4-(2,4-dioxotetrahydropyrimidin-1(2H)-yl)phenyl)piperidin-4-yl)methyl)piperazin-1-yl)-9,10-dihydro-4H-benzo[d]pyrazolo[1,5-a] [1,3]diazepine-3-carboxamide]	222
3.52	COc1ccccc1C(=O)NCc1cc(F)c(-c2nn3c(c2C(N)=O)Nc2ccc(N4CCN(CC5CCN(c6ccc(N7CCC(=O)NC7=O)cc6)CC5)CC4)cc2CC3)cc1C [Example C48, 7-(4-((1-(4-(2,4-dioxotetrahydropyrimidin-1(2H)-yl)phenyl)piperidin-4-yl)methyl)piperazin-1-yl)-2-(2-fluoro-4-((2-methoxybenzamido)methyl)-5-methylphenyl)-9,10-dihydro-4H-benzo[d]pyrazolo[1,5-a][1,3]diazepine-3-carboxamide]	> 10000
9.8	COc1c(C)cccc1C(=O)NCc1ccc(-c2nn3c(c2C(N)=O)Nc2ccc(N4CCN(CC5CCN(c6ccc(N7CCC(=O)NC7=O)cc6)CC5)CC4)cc2CC3)cc1C [Example C49, 7-(4-((1-(4-(2,4-dioxotetrahydropyrimidin-1(2H)-yl)phenyl)piperidin-4-yl)methyl)piperazin-1-yl)-2-(4-((2-methoxy-3-methylbenzamido)methyl)-3-methylphenyl)-9,10-dihydro-4H-benzo[d]pyrazolo[1,5-a][1,3]diazepine-3-carboxamide]	> 10000
